Columns and labels:
Assay type in all cases: in vivo
[1] = tested on: H. felis-infected INS-GAS mice; test: Gastric mucosa histological evaluation and scoring; settings: for Corpus histological score: Atrophy / Corpus histological score: Dysplasia / Corpus histological score: Hyperplasia / Corpus histological score: Inflammation: scale 0 to 4, mean ± SD
Text: (§1) The insulin-gastrin (INS-GAS) transgenic mice (FVB/N background) have been described previously (Wang, T. C. et al., 2000; Wang T. C. et al., 1993) and were free of specific pathogens. Animals were housed in microisolator, solid-bottomed polycarbonate cages, fed a commercially prepared pelleted diet, and given water ad libitum. One hundred twenty four (124) male INS-GAS mice at 2 or 3 months of age were inoculated with Helicobacter felis (ATCC 49179) as previously described (Wang, T. C. et al., 2000). Infection status was confirmed at 14 weeks and 26 weeks post inoculation by enzyme-linked immunosorbent assay (ELISA) to measure immunoglobulin IgG antibody to H. felis, and by quantitative real-time PCR assays of gastric corpus tissue at necropsy as described below. All experiments were approved by the Institutional Animal Care and Use Committee of University of Massachusetts Medical School.
Mice in group III were treated orally with the histamine H2 receptor antagonist loxtidine (in drinking water) at a dose of 0.5 g/L, while group IV mice received both drugs. For the 3 months drug study of inhibitory effects on maximal acid secretion, gastric atrophy, hyperplasia and dysplasia, 8 mice were prepared for each group. For the 6 months drug study of inhibitory effects on gastric carcinogenesis, 17 mice were prepared for each group.
The proton pump inhibitor omeprazole was purchased from Sigma (St. Louis Mo.) and dissolved in dimethylsulfoxide (DMSO)/PEG300, a 1:1 mixture at the concentration of 40 mg/ml, and injected intraperitoneally daily at the dose of […] (=350 micromole/kg) for 3 months. Twenty four (24) mice were divided into four groups. Mice in group A were controls treated with vehicle only, whereas group B mice were treated with omeprazole alone. Group C and D mice were treated with combination of omeprazole and YF476 or loxtidine, respectively.
(§2) At necropsy, linear strips extending from the squamocolumnar junction through the proximal duodenum were fixed in 10% neutral-buffered formalin, paraffin-embedded, cut at 5 microns, and stained with hematoxylin and eosin. Indices of injury in the gastric cardia/corpus and antrum were scored on an ordinal scale from 0 to 4 in increments of 0.5 by a single veterinary pathologist (A.B.R.) blinded to treatment groups. Paraffin-embedded sections were also stained with the Warthin-Starry silver staining method for detection of H.felis as previously described (Fox, J. G. et al., 2003).

TNF-alpha = test: Real-time RT-PCR of cytokine expression: TNF-alpha; settings: 6 months, versus untreated mice
Procedure: Real-time RT-PCR assay of growth factors and cytokine expression profiles Total RNAs were extracted from a sample of whole stomach from each animal with Trizol (Invitrogen, Calif.) and five micrograms of total RNA were used for first strand cDNA synthesis using Superscript II cDNA amplification System (Invitrogen, Calif.) following manufacturer's instructions. Real-time PCR was performed as above using RT-PCR primers for each gene as listed below. All primers were designed using Lasergene ver5.0 software (DNASTAR inc., Madison, Wis.). Results were calculated by minus delta delta threshold cycle (-ΔΔCt) method (Livak, K. J. et al., 2001). Briefly, the threshold cycle Ct1 of each sample reaction was deducted from the threshold cycle Ct2 of GAPDH reaction for normalization, and then deducted from the threshold cycle Ct3 of calibration control (45 cycles in this experiment), i.e., the final result was represented by the formula; Ct3-(Ct1-Ct2). […]

Helicobacter felis = test: H. felis infection status (Warthin-Starry staining, IgG ELISA, real-time PCR); settings: quantitative real-time PCR; n=6
Text: as §1, with “All experiments were approved by the Institutional Animal Care and Use Committee of University of Massachusetts Medical School.” left out
as §2, with “Paraffin-embedded sections were also stained with the Warthin-Starry silver staining method for detection of H.felis as previously described (Fox, J. G. et al., 2003).” left out
Plasma gastrin levels (COOH-terminally amidated gastrin) were determined by radioimmunoassay using rabbit antiserum L2 that reacts similarly with G17 and […]. […]

Which results are given for “1-methyl-5-((3-(3-(1-piperidinylmethyl)phenoxy)propyl)amino)-1H-1,2,4-triazole-3-ethanol [Loxtidine]”?
Histological finding: gastric atrophy, hyperplasia, dysplasia ([1]; 3 months treatment, hematoxylin and eosin): partially blocked; Histological finding: gastric atrophy, hyperplasia, dysplasia ([1]; 3 months treatment, hematoxylin and eosin, listed as loxtidine): partial inhibition of gastric atrophy and foveolar hyperplasia; Histological finding: gastric atrophy, hyperplasia, dysplasia ([1]; 3 months treatment, hematoxylin and eosin, listed as loxtidine alone): slight inhibition of Helicobacter-mediated gastric atrophy; Corpus histological score: Atrophy ([1]; 3 months treatment, n = 4): 1.83 ± 0.29; Corpus histological score: Dysplasia ([1]; 3 months treatment, n = 4): 1.00 ± 0.50; Corpus histological score: Hyperplasia ([1]; 3 months treatment, n = 4): 1.33 ± 0.58; Corpus histological score: Inflammation ([1]; 3 months treatment, n = 4): 1.83 ± 0.29; Histological finding: gastric neoplasia / carcinogenesis ([1]; 6 months treatment, hematoxylin and eosin): partial inhibition of progression to neoplasia; Corpus histological score: Atrophy ([1]; 6 months treatment, n = 5): 2.67 ± 0.61; Corpus histological score: Dysplasia ([1]; 6 months treatment, n = 5): 2.17 ± 1.29a; Corpus histological score: Hyperplasia ([1]; 6 months treatment, n = 5): 2.42 ± 1.07a; Corpus histological score: Inflammation ([1]; 6 months treatment, n = 5): 2.33 ± 1.17; TNF-alpha expression level (TNF-alpha; listed as Loxtidine alone): significantly lower level; TNF-alpha expression level (TNF-alpha; listed as loxtidine alone): significantly down-regulated; H. felis DNA copy numbers per gastric corpus DNA (copy/μg) compared with non drug treated mice (Helicobacter felis): no significant difference

From US20050042283A1, “Histamine and CCK2/gastrin receptor blockade in the treatment of acid-peptic disease and cancer” (UNIVERSITY OF MASSACHUSETTS, priority 2003, published 2005)
